Literature values in US20090105346A1, “Novel crystalline forms of armodafinil and preparation thereof” (priority 2007, published 2009).

Details: S enantiomer of modafinil compared with R enantiomer; Prisinzano et al., Tetrahedron: Asymmetry (2004)

NC(=O)C[S+]([O-])C(c1ccccc1)c1ccccc1 (single isomer, unassigned) [S enantiomer]
elimination from the body relative to the R enantiomer: three times faster
